Reference: patent publication US9469615B2, “Quinoxalines and AZA-quinoxalines as CRTH2 receptor modulators” (Merck Sharp & Dohme Corp., priority 2010, dated 2016)

What follows are compounds tested against T1, hCRTH2 (Homo sapiens, UniProt Q9Y5Y4) (assay: Radioligand binding assay ([3H]PGD2 competition, HEK-hCRTH2 membranes)). Settings: [3H]PGD2 competition, Table B.
T1 construct: expressed in transfected cells; host or cells: HEK (human embryonic kidney) cells expressing hCRTH2; membrane preparation
T1 sequence (Q9Y5Y4 1-395): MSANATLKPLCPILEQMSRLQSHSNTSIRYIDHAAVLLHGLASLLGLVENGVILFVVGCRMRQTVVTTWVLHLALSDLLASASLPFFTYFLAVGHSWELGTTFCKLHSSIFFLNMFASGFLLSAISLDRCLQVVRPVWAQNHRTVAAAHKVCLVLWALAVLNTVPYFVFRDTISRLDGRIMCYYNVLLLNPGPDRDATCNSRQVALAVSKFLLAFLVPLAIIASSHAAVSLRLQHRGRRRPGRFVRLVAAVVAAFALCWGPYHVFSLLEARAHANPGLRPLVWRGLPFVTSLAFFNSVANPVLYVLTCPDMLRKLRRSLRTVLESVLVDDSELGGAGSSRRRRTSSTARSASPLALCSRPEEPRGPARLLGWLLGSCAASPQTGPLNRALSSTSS
Method in brief: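 Filter-bound radioactivity was counted by scintillation after 60 min incubations at room temperature. Membranes (8-20 μg) from HEK cells expressing hCRTH2 competed test ligands against 3.0 nM [3H]PGD2 in Tris-HCl pH 7.4 buffer with EDTA and 2 mM MnCl2; 10 μM PGD2 set non-specific binding.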
Work on `COc1cccc(C2CN(C(=O)c3ccc4nc(-c5ccc(F)cc5)c(CCCCC(=O)O)nc4c3)C2)c1` [compound 373, 5-(3-(4-fluorophenyl)-7-(3-(3-methoxyphenyl)azetidine-1-carbonyl)quinoxalin-2-yl)pentanoic acid] yielded a Ki of 2.1 to 20 nM.
In the case of `C[C@@H](NC(=O)c1ccc2nc(-c3ccc(Cl)cc3)c(CCCCC(=O)O)nc2c1)c1ccc(F)c(F)c1` [compound 374, (R)-5-(3-(4-chlorophenyl)-7-((1-(3,4-difluorophenyl)ethyl)carbamoyl)quinoxalin-2-yl)pentanoic acid], the Ki is reported as 0.1 to 2 nM.
`C[C@H](NC(=O)c1ccc2nc(-c3ccc(Cl)cc3)c(CCCCC(=O)O)nc2c1)c1ccc(F)c(F)c1` [compound 375, (S)-5-(3-(4-chlorophenyl)-7-((1-(3,4-difluorophenyl)ethyl)carbamoyl)quinoxalin-2-yl)pentanoic acid] showed a Ki of 0.1 to 2 nM.
In the case of `CC[C@@H](NC(=O)c1ccc2nc(-c3ccc(Cl)cc3)c(CCCCC(=O)O)nc2c1)c1ccc(F)cc1` [compound 376, (R)-5-(3-(4-chlorophenyl)-7-((1-(4-fluorophenyl)propyl)carbamoyl)quinoxalin-2-yl)pentanoic acid], the Ki is reported as 2.1 to 20 nM.
With `CC[C@H](NC(=O)c1ccc2nc(-c3ccc(Cl)cc3)c(CCCCC(=O)O)nc2c1)c1ccc(F)cc1` [compound 377] the Ki was 2.1 to 20 nM.
In the case of `CN(C(=O)c1ccc2nc(-c3ccccc3)c(CCCCC(=O)O)nc2c1)[C@@H]1CCCc2ccccc21` [compound 378, (R)-5-(7-(methyl(1,2,3,4-tetrahydronaphthalen-1-yl)carbamoyl)-3-phenylquinoxalin-2-yl)pentanoic acid], the Ki is reported as 20.1 to 200 nM.
`CN(C(=O)c1ccc2nc(-c3ccccc3)c(CCCCC(=O)O)nc2c1)[C@@H]1CCCc2cc(F)ccc21` [compound 379, (R)-5-(7-((6-fluoro-1,2,3,4-tetrahydronaphthalen-1-yl)(methyl)carbamoyl)-3-phenylquinoxalin-2-yl)pentanoic acid] showed a Ki of 2.1 to 20 nM.
In the case of `CN(C(=O)c1ccc2nc(-c3ccccc3)c(CCCCC(=O)O)nc2c1)[C@@H]1CCCc2cc(Cl)ccc21` [compound 380, (R)-5-(7-((6-chloro-1,2,3,4-tetrahydronaphthalen-1-yl)(methyl)carbamoyl)-3-phenylquinoxalin-2-yl)pentanoic acid], the Ki is reported as 2.1 to 20 nM.
Compound `O=C(O)CCCCc1nc2cc(C(=O)N[C@@H]3CCc4cc(F)ccc43)ccc2nc1-c1ccc(Cl)cc1` [compound 381, (R)-5-(3-(4-chlorophenyl)-7-((5-fluoro-2,3-dihydro-1H-inden-1-yl)carbamoyl)quinoxalin-2-yl)pentanoic acid] has a Ki of 0.1 to 2 nM.
`O=C(O)CCCCc1nc2cc(C(=O)N[C@H]3CCc4cc(F)ccc43)ccc2nc1-c1ccc(Cl)cc1` [compound 382, (S)-5-(3-(4-chlorophenyl)-7-((5-fluoro-2,3-dihydro-1H-inden-1-yl)carbamoyl)quinoxalin-2-yl)pentanoic acid] gave a Ki of 0.1 to 2 nM.
`O=C(O)CCCCc1nc2cc(C(=O)N[C@@H]3CCc4cc(Cl)ccc43)ccc2nc1-c1ccc(Cl)cc1` [compound 383, (R)-5-(7-((5-chloro-2,3-dihydro-1H-inden-1-yl)carbamoyl)-3-(4-chlorophenyl)quinoxalin-2-yl)pentanoic acid] was tested, and the Ki was 0.1 to 2 nM.
With `O=C(O)CCCCc1nc2cc(C(=O)N[C@H]3CCc4cc(Cl)ccc43)ccc2nc1-c1ccc(Cl)cc1` [compound 384, (S)-5-(7-((5-chloro-2,3-dihydro-1H-inden-1-yl)carbamoyl)-3-(4-chlorophenyl)quinoxalin-2-yl)pentanoic acid] the Ki was 0.1 to 2 nM.
In the case of `O=C(O)CCCCc1nc2cc(C(=O)N[C@H]3CCCc4cc(F)ccc43)ccc2nc1-c1ccccc1` [compound 385, (S)-5-(7-((6-fluoro-1,2,3,4-tetrahydronaphthalen-1-yl)carbamoyl)-3-phenylquinoxalin-2-yl)pentanoic acid], the Ki is reported as 2.1 to 20 nM.
For `O=C(O)CCCCc1nc2cc(C(=O)N[C@@H]3CCCc4cc(Cl)ccc43)ccc2nc1-c1ccccc1` [compound 386, (R)-5-(7-((6-chloro-1,2,3,4-tetrahydronaphthalen-1-yl)carbamoyl)-3-phenylquinoxalin-2-yl)pentanoic acid], the Ki was 0.1 to 2 nM.
For `O=C(O)CCCCc1nc2cc(C(=O)N[C@H]3CCCc4cc(Cl)ccc43)ccc2nc1-c1ccccc1` [compound 387, (S)-5-(7-((6-chloro-1,2,3,4-tetrahydronaphthalen-1-yl)carbamoyl)-3-phenylquinoxalin-2-yl)pentanoic acid], the Ki was 2.1 to 20 nM.
`O=C(O)CCCCc1nc2cc(C(=O)N[C@H]3CCCc4ccccc43)ccc2nc1-c1ccccc1` [compound 388, (S)-5-(3-phenyl-7-((1,2,3,4-tetrahydronaphthalen-1-yl)carbamoyl)quinoxalin-2-yl)pentanoic acid] showed a Ki of 2.1 to 20 nM.
In the case of `COc1ccc(C2CN(C(=O)c3ccc4nc(-c5ccccc5)c(CCCCC(=O)O)nc4c3)C2)cc1` [compound 389, 5-(7-(3-(4-methoxyphenyl)azetidine-1-carbonyl)-3-phenylquinoxalin-2-yl)pentanoic acid], the Ki is reported as 0.1 to 2 nM.
`COc1cccc(C2CN(C(=O)c3ccc4nc(-c5ccccc5)c(CCCCC(=O)O)nc4c3)C2)c1` [compound 390, 5-(7-(3-(3-methoxyphenyl)azetidine-1-carbonyl)-3-phenylquinoxalin-2-yl)pentanoic acid] showed a Ki of 0.1 to 2 nM.
For `CC(CCCc1nc2cc(C(=O)N[C@H](C)c3ccc(Cl)cc3)ccc2nc1-c1ccc(Cl)cc1)C(=O)O` (stereo partly drawn) [compound 391, 5-(3-(4-chlorophenyl)-7-(((R)-1-(4-chlorophenyl)ethyl)carbamoyl)quinoxalin-2-yl)-2-methylpentanoic acid], the Ki was 2.1 to 20 nM.
Work on `CC(CCCc1nc2cc(C(=O)N[C@@H](C)c3ccc(Cl)cc3)ccc2nc1-c1ccc(Cl)cc1)C(=O)O` (stereo partly drawn) [compound 392, 5-(3-(4-chlorophenyl)-7-(((S)-1-(4-chlorophenyl)ethyl)carbamoyl)quinoxalin-2-yl)-2-methylpentanoic acid] yielded a Ki of 2.1 to 20 nM.
`Cc1ccc(CNC(=O)c2ccc3nc(-c4ccc(Cl)cc4)c(CC4CCC(C(=O)O)C4)nc3c2)cc1` (stereo not shown) [compound 393, 3-((3-(4-chlorophenyl)-7-((4-methylbenzyl)carbamoyl)quinoxalin-2-yl)methyl)cyclopentane-carboxylic acid] was tested, and the Ki was 2.1 to 20 nM.
Compound `C[C@@H](NC(=O)c1ccc2nc(-c3ccc(Cl)cc3)c(CC3CCC(C(=O)O)C3)nc2c1)c1ccccc1` (stereo partly drawn) [compound 394, 3-((3-(4-chlorophenyl)-7-(((R)-1-phenylethyl)carbamoyl)quinoxalin-2-yl)methyl)cyclopentane-carboxylic acid] has a Ki of 2.1 to 20 nM.
Compound `O=C(N[C@H](c1ccccc1)C(F)(F)F)c1ccc2nc(-c3ccc(Cl)cc3)c(CC3CCC(C(=O)O)C3)nc2c1` (stereo partly drawn) [compound 395, 3-((3-(4-chlorophenyl)-7-(((R)-2,2,2-trifluoro-1-phenylethyl)carbamoyl)quinoxalin-2-yl)methyl)cyclopentane-carboxylic acid] has a Ki of 2.1 to 20 nM.
Work on `O=C(O)C1CCC(Cc2nc3cc(C(=O)N4CC(c5ccc(F)cc5)C4)ccc3nc2-c2ccc(Cl)cc2)C1` (stereo not shown) [compound 396, 3-((3-(4-chlorophenyl)-7-(3-(4-fluorophenyl)azetidine-1-carbonyl)quinoxalin-2-yl)methyl)cyclopentanecarboxylic acid] yielded a Ki of 2.1 to 20 nM.
For `O=C(O)C1CCC(Cc2nc3cc(C(=O)N4CC(c5cccc(F)c5)C4)ccc3nc2-c2ccc(Cl)cc2)C1` (stereo not shown) [compound 397, 3-((3-(4-chlorophenyl)-7-(3-(3-fluorophenyl)azetidine-1-carbonyl)quinoxalin-2-yl)methyl)cyclopentane-carboxylic acid], the Ki was 2.1 to 20 nM.
`O=C(O)C1CCC(Cc2nc3cc(C(=O)N4CC(c5ccc(F)c(F)c5)C4)ccc3nc2-c2ccc(Cl)cc2)C1` (stereo not shown) [compound 398, 3-((3-(4-chlorophenyl)-7-(3-(3,4-difluorophenyl)azetidine-1-carbonyl)quinoxalin-2-yl)methyl)cyclopentane-carboxylic acid] gave a Ki of 2.1 to 20 nM.
Work on `CC(C)[C@@H](NC(=O)c1ccc2nc(-c3ccc(Cl)cc3)c(CCCCC(=O)O)nc2c1)c1ccc(F)cc1` [compound 399, (R)-5-(3-(4-chlorophenyl)-7-((1-(4-fluorophenyl)-2-methylpropyl)carbamoyl)quinoxalin-2-yl) pentanoic acid] yielded a Ki of 2.1 to 20 nM.
In the case of `N#Cc1ccc(C2CN(C(=O)c3ccc4nc(-c5ccc(Cl)cc5)c(CC5CCC(C(=O)O)C5)nc4c3)C2)cc1` (stereo not shown) [compound 400, 3-((3-(4-chlorophenyl)-7-(3-(4-cyanophenyl)azetidine-1-carbonyl)quinoxalin-2-yl)methyl)cyclopentane-carboxylic acid], the Ki is reported as 2.1 to 20 nM.
`O=C(N[C@H](c1ccc(Cl)cc1)C(F)(F)F)c1ccc2nc(-c3ccc(Cl)cc3)c(CC3CCC(C(=O)O)C3)nc2c1` (stereo partly shown) [compound 401] showed a Ki of 20.1 to 200 nM.
With `CC(C)[C@H](NC(=O)c1ccc2nc(-c3ccc(Cl)cc3)c(CCCCC(=O)O)nc2c1)c1ccc(F)cc1` [compound 402, (S)-5-(3-(4-chlorophenyl)-7-((1-(4-fluorophenyl)-2-methylpropyl)carbamoyl)quinoxalin-2-yl) pentanoic acid] the Ki was 2.1 to 20 nM.
`C[C@@H](NC(=O)c1ccc2nc(-c3ccc(Cl)cc3)c(CCCCC(=O)O)nc2c1)c1ccc(C#N)cc1` [compound 403, (R)-5-(3-(4-chlorophenyl)-7-((1-(4-cyanophenyl)ethyl)carbamoyl)quinoxalin-2-yl)pentanoic acid] showed a Ki of 0.1 to 2 nM.
